Results as given in PMC6247892, “Ficus sycomorus latex: An efficient alternative Egyptian source for horseradish peroxidase in labeling with antibodies for immunodiagnostic kits” (Veterinary World, 2018).
Where a name gives a salt, the structure may show the parent alone. Read-outs that look alike come from different tables or passages of the source.

Test system: POL (peroxidase of sycamore fig latex)
Assay: spectrophotometric peroxidase assay, substrate variation
Format: biochemical, Ficus sycomorus
Conditions: co-substrate H2O2, free enzyme, standard assay pH 5.5, room temperature (28-30°C)
Excerpt: spectrophotometric peroxidase assay, substrate variation on POL (peroxidase of sycamore fig latex)

With Oc1ccc(Cl)c2ccccc12 [4-chloro-1-naphthol] the Km (read-out: Km (mM substrates) / 4C-1N) was 5 ± 0.6 mM.

In the case of CCn1c(=NN=c2sc3cc(S(=O)(=O)O)ccc3n2CC)sc2cc(S(=O)(=O)O)ccc21 [ABTS], the Km (read-out: Km (mM substrates) / ABTS) is reported as 4.5 ± 0.5 mM.

With Nc1ccccc1N [o-phenylenediamine dihydrochloride] the Km (read-out: Km (mM substrates) / OPD) was 5.8 ± 0.4 mM.

Work on Cc1cc(-c2cc(C)c(N)c(C)c2)cc(C)c1N [3,3`,5,5`tetramethylbenzidine] yielded a Km (read-out: Km (mM substrates) / TMB) of 7 ± 0.8 mM.
